Patent publication US7772252B2, “Heterocyclic substituted carbonyl derivatives and their use as dopamine D3 receptor ligands” (Aventis Pharmaceuticals Inc., priority 2001, dated 2010)

target: T1, cloned human alpha-1A adrenergic receptors (α1a) (Homo sapiens, UniProt P35348); experiment: [3H]Prazosin binding to cloned human alpha-1A adrenergic receptors expressed in CHO cells; settings: read-out: halpha1Ki (nM) h = human
T1 construct: expressed in transfected cells; membranes
T1 sequence (P35348 1-466): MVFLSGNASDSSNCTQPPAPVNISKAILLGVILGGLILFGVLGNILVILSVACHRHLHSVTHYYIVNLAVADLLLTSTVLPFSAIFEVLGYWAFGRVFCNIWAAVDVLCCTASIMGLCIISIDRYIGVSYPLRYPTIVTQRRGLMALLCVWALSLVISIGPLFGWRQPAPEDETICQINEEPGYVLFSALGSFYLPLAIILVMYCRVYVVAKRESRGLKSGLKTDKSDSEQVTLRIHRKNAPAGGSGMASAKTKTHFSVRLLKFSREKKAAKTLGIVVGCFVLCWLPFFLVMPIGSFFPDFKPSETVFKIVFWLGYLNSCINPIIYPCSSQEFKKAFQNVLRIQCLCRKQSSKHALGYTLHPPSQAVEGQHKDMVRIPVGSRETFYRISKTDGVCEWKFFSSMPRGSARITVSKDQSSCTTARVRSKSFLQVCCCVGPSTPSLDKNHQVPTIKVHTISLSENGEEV
From the text: ^3H]Prazosin Binding to Cloned Human Alpha-1A Adrenergic Receptors (α1a) Expressed in Chinese Hamster Ovary Cells (CHO)
• Purpose: This in vitro assay is designed as a screen to identify compounds displaying a affinity for the human α1a adrenoceptor subtype expressed in the membrane fragments of CHO cells. The assay measures the ability of the test compounds to displace [^3H] prazosin from α1a sites. • The identification of multiple vascular α1-addrenoceptors (α1a, α1b, α1d) in vitro has provided impetus to define the role(s) of these subtypes in cardiovascular regulation in vivo (Vargas and Gorman, 1995). […] Prazosin is a potent antagonist of the human α1a-adrenoceptor subtype, which has been cloned and is expressed in the membrane fragments of CHO cells. • hα1a receptor: The cloning of the human α1a cDNA was accomplished first by screening a human prostate cDNA library (Clontech), from which a portion of the coding region was obtained. This DNA fragment was then used to screen a human leukocyte genomic library (Clontech), and the rest of the coding sequence was obtained. Later these two fragments were spliced together. The entire coding sequence was then fully sequenced including matching PCR sequence with original genomic coding sequence, thus ensuring splice sites were joined correctly (Schwinn et al., 1995). Once sequenced, the gene was subcloned into the expression vector pcDNA3 (Invitrogen). Plasmid DNA was then used for transfection into CHO cells and G418 resistant clones were isolated. A clone expressing high levels of the hα1a receptor (as determined by mRNA and receptor binding data) was chosen and pharmacologically characterized. • Culture Media Ingredients for Adherent α1a expressing CHO Culture: • A. HAM's F-12 (Celigro) • B. 10% 0.2 micron filtered Fetal Bovine Serum (FBS)(Celigro) • C. 1% 0.2 micron filtered Penicillin-Streptomycin (Celigro) • D. G418 0.2 micron filtered (Geneticin 400 μg/ml)(Celigro) • Cells are cultured using established methods and procedures in either 150×25 mm culture plates (scale up to 100 plates) or a combination of these plates and 70 roller bottles. One culturing/harvest cycle typically requires 2 weeks and yields between 100-400 mg protein. Plates or bottles are incubated at 37° C.+5% CO2. • Storage: Cells are harvested by mechanical scraping, washed using PBS, collected in 250 ml Corning polypropylene centrifuge tubes, spun down (1500 RPM) and resuspended in dH2O 10% DMSO (final volume per harvest is approximately 50 ml). Protein determination is made using the Biorad DC Assay Kit. Finally, the appropriate volume is aliquoted into a 2 ml Corning Cryovial (10 mg/1-1.5 ml) which is stored at −80° C.
• Assay Requirement: 0.5 cryovials per 96 well plate (assay volume=200 μl/well) • [^3H]-Ligand: [7-methoxy-^3H]-Prazosin: 1.0 nM (NEN, NET-823) • 70-87 Ci/mmol • Materials: Phentolamine mesylate (Research Biochemicals Int. #P-131) • 96 well flat bottom plates (Beckman) • Unifilter GF/B Plate (Packard) • Polyethylenimine (Sigma #P-3134) • TomTec or Packard Filtermate 196 Cell Harvesters • Packard TopCount Scintillation Counter • Buffers: A: 50 mM Tris HCl; 0.1% ascorbate, pH 7.7 (incubation buffer) • B: 50 mM Tris HCl; pH 7.7 (wash buffer) • Procedure: Assay additions are as follows (in the order indicated): • Total Binding=50 μl buffer A+50 μl [^3H]prazosin+100 μl membrane • Nonsp. Bd.=50 μl 10 μM phentolamine+50 μl [^3H]prazosin+100 μl membrane • Test Cpd.=50 μl compound+50 μl [^3H]prazosin+100 μl membrane • Compounds to be evaluated are weighed out to yield a 10 mM stock solution in DMSO in a 24 well polystyrene plate. This is diluted to a 0.5 mM stock in dH2O, Serial dilutions in Buffer A are made from which 50 μl additions to the plate are made in duplicate in order to achieve the final concentrations desired. Typically, one 96 well plate is used to evaluate 11 compounds at 4 concentrations (10^−6-10^−9 M) in duplicate. Total binding and nonspecific binding are determined in quadruplicate. […]

Ki [nM]	SMILES
126	CN(C(=O)CCCN1CCN(c2csc3cc(C(F)(F)F)ccc23)CC1)C1CCCCC1 [compound 826808]
200	O=C(CCCN1CCN(c2csc3cc(C(F)(F)F)ccc23)CC1)N(CCO)C1CCCCC1 [compound 826810]
223	CCOC(=O)C1CCN(C(=O)CCCN2CCN(c3csc4cc(C(F)(F)F)ccc34)CC2)CC1 [compound 826811]
658	O=C(CCCN1CCN(c2csc3cc(C(F)(F)F)ccc23)CC1)N1CCC(O)CC1 [compound 826812]
57	CC1CCCCN1C(=O)CCCN1CCN(c2csc3cc(C(F)(F)F)ccc23)CC1 (stereo not drawn) [compound 826813]
89.3	CC1CCN(C(=O)CCCN2CCN(c3csc4cc(C(F)(F)F)ccc34)CC2)CC1 [compound 826814]
80.5	CC1CCCN(C(=O)CCCN2CCN(c3csc4cc(C(F)(F)F)ccc34)CC2)C1 (stereo not drawn) [compound 826815]
249	O=C(CCCN1CCN(c2csc3cc(C(F)(F)F)ccc23)CC1)N1CCC(N2CCCC2)CC1 [compound 826816]
124	CC1CC(C)CN(C(=O)CCCN2CCN(c3csc4cc(C(F)(F)F)ccc34)CC2)C1 (stereo not drawn) [compound 826818]
49	O=C(CCCN1CCN(c2csc3cc(C(F)(F)F)ccc23)CC1)N1CCCC1 [compound 826819]
129	O=C(CCCN1CCN(c2csc3cc(C(F)(F)F)ccc23)CC1)NC1CCCC1 [compound 826820]
1280	O=C(CCCN1CCN(c2csc3cc(C(F)(F)F)ccc23)CC1)NC1CCCCC1 [compound 826821]
32.2	CC1CCCN1C(=O)CCCN1CCN(c2csc3cc(C(F)(F)F)ccc23)CC1 (stereo not drawn) [compound 826822]
148	CN(C)C1CCN(C(=O)CCCN2CCN(c3csc4cc(C(F)(F)F)ccc34)CC2)C1 (stereo not drawn) [compound 826823]
23.4	C[C@H]1CC[C@H](NC(=O)CCCN2CCN(c3csc4cc(F)ccc34)CC2)CC1 [compound 826844]
5.44	CCOC(=O)[C@H]1CC[C@H](NC(=O)CCCN2CCN(c3csc4cc(F)ccc34)CC2)CC1 [compound 826845]

Ki [nM]	SMILES
93.9	CC[C@H]1CC[C@H](NC(=O)CCCN2CCN(c3csc4cc(F)ccc34)CC2)CC1 [compound 826846]
0.513	CC1CCCC(NC(=O)CCCN2CCN(c3csc4cc(F)ccc34)CC2)C1 (stereo not drawn) [compound 826847]
12.3	CN(C(=O)CCCN1CCN(c2csc3cc(F)ccc23)CC1)C1CCCCC1 [compound 826848]
35.2	CCN(C(=O)CCCN1CCN(c2csc3cc(F)ccc23)CC1)C1CCCCC1 [compound 826849]
28.4	O=C(CCCN1CCN(c2csc3cc(F)ccc23)CC1)N(CCO)C1CCCCC1 [compound 826850]
18.9	CCOC(=O)C1CCN(C(=O)CCCN2CCN(c3csc4cc(F)ccc34)CC2)CC1 [compound 826851]
6.16	O=C(CCCN1CCN(c2csc3cc(F)ccc23)CC1)N1CCC(O)CC1 [compound 826852]
0.258	CC1CCCCN1C(=O)CCCN1CCN(c2csc3cc(F)ccc23)CC1 (stereo not drawn) [compound 826853]
0.0713	CC1CCN(C(=O)CCCN2CCN(c3csc4cc(F)ccc34)CC2)CC1 [compound 826854]
0.889	CC1CCCN(C(=O)CCCN2CCN(c3csc4cc(F)ccc34)CC2)C1 (stereo not drawn) [compound 826855]
15.3	O=C(CCCN1CCN(c2csc3cc(F)ccc23)CC1)N1CCC(N2CCCC2)CC1 [compound 826856]
9.42	CC1CC(C)CN(C(=O)CCCN2CCN(c3csc4cc(F)ccc34)CC2)C1 (stereo not drawn) [compound 826858]
4	O=C(CCCN1CCN(c2csc3cc(F)ccc23)CC1)N1CCCC1 [compound 826859]
9.55	O=C(CCCN1CCN(c2csc3cc(F)ccc23)CC1)NC1CCCCC1 [compound 826861]
0.637	CC1CCCN1C(=O)CCCN1CCN(c2csc3cc(F)ccc23)CC1 (stereo not drawn) [compound 826862]

SMILES	Ki [nM]
CC1CCCC(NC(=O)CCCN2CCN(c3csc4cc(C(F)(F)F)ccc34)CC2)C1 (racemic) [compound 826807]	166000
O=C(CCCN1CCN(c2csc3cc(F)ccc23)CC1)NC1CCCC1 (racemic) [compound 826860]	0.516
